{"source": "patent US20120100130A1", "about": "“Novel Receptor Hetero-Dimers/-Oligomers” (DIMERIX BIOSCIENCE PTY LTD., priority 2009, published 2012)", "key": {"AT1R [1]": {"tested_on": "AT1R", "details": "apolipoprotein E-deficient mice, cited from earlier work"}, "AngII treated monocytes": {"tested_on": "AngII treated monocytes", "details": "cited from earlier work"}, "leukocyte infiltration": {"tested_on": "leukocyte infiltration", "details": "intraperitoneal AngII administration; cited from earlier work"}, "CCR2b": {"target": "T1, CCR2b (Rattus norvegicus, UniProt O55193)", "T1 construct": "host or cells: whole animals (in vivo)", "T1 sequence (O55193 1-373)": "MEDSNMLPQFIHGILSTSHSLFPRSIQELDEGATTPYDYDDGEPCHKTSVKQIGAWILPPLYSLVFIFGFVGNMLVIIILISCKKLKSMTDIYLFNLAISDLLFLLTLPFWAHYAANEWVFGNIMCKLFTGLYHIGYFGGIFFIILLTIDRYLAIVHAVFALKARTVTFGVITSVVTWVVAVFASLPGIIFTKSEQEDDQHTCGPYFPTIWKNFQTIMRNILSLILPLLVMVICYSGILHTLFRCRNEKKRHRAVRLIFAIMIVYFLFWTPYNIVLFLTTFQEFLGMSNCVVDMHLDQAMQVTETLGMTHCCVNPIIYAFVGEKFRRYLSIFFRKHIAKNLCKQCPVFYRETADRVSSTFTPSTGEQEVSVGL", "details": "AngII and high salt diet, cited from earlier work"}, "[2]": {"tested_on": "renal cells and monocytes", "details": "cited from earlier work"}, "[3]": {"tested_on": "glomerular endothelial cells", "details": "AngII treatment, rat glomerular endothelial cells; cited from earlier work"}, "renal tissue": {"tested_on": "renal tissue", "details": "rats, 3 days of AngII treatment; cited from earlier work"}, "AT1R [4]": {"target": "T2, AT1R (Homo sapiens, UniProt P30556)", "T2 construct": "expressed in transfected cells; host or cells: HEK293FT", "T2 sequence (P30556 1-359)": "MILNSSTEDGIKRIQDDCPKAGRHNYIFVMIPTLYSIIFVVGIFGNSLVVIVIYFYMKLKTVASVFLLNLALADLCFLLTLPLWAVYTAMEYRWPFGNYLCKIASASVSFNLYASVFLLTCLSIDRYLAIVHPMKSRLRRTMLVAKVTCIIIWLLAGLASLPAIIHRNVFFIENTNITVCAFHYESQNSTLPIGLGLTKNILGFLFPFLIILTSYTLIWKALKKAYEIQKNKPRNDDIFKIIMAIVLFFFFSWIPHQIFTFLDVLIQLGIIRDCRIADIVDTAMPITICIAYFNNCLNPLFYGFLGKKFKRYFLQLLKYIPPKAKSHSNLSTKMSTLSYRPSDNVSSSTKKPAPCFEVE", "experiment": "eBRET control, cells expressing AT1R/Rluc8 and barr2/Venus with pcDNA3", "assay_type": "cell-based", "details": "10^−7M MCP1; HEK293FT cells expressing AT1R/Rluc8 and barr2/Venus with pcDNA3", "description": "(§1) HEK293FT cells were seeded in 6-well plates at a density of approximately 630,000 cells/well and maintained at 37° C., 5% CO2 in Complete Media (DMEM containing 0.3 mg/ml glutamine, 100 IU/ml penicillin and 100 μg/ml streptomycin (Gibco)) supplemented with 10% fetal calf serum (FCS; Gibco). Transient transfections were carried out 24 h after seeding using GeneJuice (Novagen) according to manufacturer instructions. 24 h post-transfection, cells were washed with PBS, detached using 0.05% trypsin/0.53 mM EDTA, resuspended in HEPES-buffered phenol red free Complete Media containing 5% FCS and added to a poly-L-lysine-coated white 96-well microplate (Nunc). 48 h post-transfection, eBRET assays were carried out following pre-incubation of cells with EnduRen™ (Promega) at a final concentration of 30 μM, at 37° C., 5% CO2 for 2 h. BRET measurements were taken at 37° C. using the Victor Light plate reader with Wallac 1420 software (Perkin-Elmer). Filtered light emissions were sequentially measured for 2 s in each of the ‘donor wavelength window’ (400-475 nm) and ‘acceptor wavelength window’ (520-540 nm).\nThe BRET signal observed between interacting proteins is normalized by subtracting the background BRET ratio. […]\nIn parallel, eBRET signals were measured from cells transiently expressing AT1R/Rluc8 and barr2/Venus with pcDNA3 following treatment with 10^−7M monocyte chemotactic protein-1 (MCP1)."}, "AT2R": {"target": "T3, AT2R (Homo sapiens, UniProt P50052)", "T3 construct": "expressed in transfected cells; host or cells: HEK293FT", "T3 sequence (P50052 1-363)": "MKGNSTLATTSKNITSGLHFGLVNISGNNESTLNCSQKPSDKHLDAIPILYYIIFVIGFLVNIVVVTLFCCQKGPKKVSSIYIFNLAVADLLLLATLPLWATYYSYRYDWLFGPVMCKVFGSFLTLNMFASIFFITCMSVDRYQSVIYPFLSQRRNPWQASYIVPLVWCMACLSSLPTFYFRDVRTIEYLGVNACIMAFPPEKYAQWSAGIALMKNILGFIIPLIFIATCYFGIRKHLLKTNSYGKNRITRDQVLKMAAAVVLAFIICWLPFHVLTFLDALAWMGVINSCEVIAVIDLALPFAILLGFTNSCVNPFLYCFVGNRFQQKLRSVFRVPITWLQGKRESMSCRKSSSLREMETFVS", "experiment": "eBRET control, cells expressing AT2R/Rluc8 and barr2/Venus with pcDNA3", "assay_type": "cell-based", "details": "10^−7M MCP1; HEK293FT cells expressing AT2R/Rluc8 and barr2/Venus with pcDNA3", "description": "as §1\nThe BRET signal observed between interacting proteins is normalized by subtracting the background BRET ratio. […] In the following examples, the second calculation will be used and the signal is described as the ‘ligand-induced BRET ratio’."}}}
{"compound": "CCCCC1=NC2(CCCC2)C(=O)N1Cc1ccc(-c2ccccc2-c2nnn[nH]2)cc1", "note": "[irbesartan]", "values": [{"measurement": "lesion size", "setting": "AT1R [1]; after 12 weeks", "result": "reduced"}, {"measurement": "levels of MCP-1 and MIP-1α mRNA expression", "setting": "AT1R [1]", "result": "significantly lower"}]}
{"compound": "CCCCc1nc(Cl)c(CO)n1Cc1ccc(-c2ccccc2-c2nn[nH]n2)cc1", "note": "[Losartan]", "values": [{"measurement": "AngII-mediated upregulation of MIP-1 and interleukin-8 chemokines", "setting": "AngII treated monocytes", "result": "inhibited"}, {"measurement": "Leukocyte infiltration", "setting": "leukocyte infiltration", "result": "inhibited"}]}
{"compound": "O=C1Nc2ccccc2C2(CCN(CCc3ccc(C(F)(F)F)cc3)CC2)O1", "note": "[RS102895]", "values": [{"measurement": "BP", "setting": "CCR2b; with versus without CCR2b antagonist", "result": "comparable"}, {"measurement": "renal protection in hypertension", "setting": "CCR2b", "result": "protects the kidney in hypertension by reducing the inflammatory response"}]}
{"compound": "C[C@H](N[C@@H](CCc1ccccc1)C(=O)O)C(=O)N1[C@H](C(=O)O)C[C@@H]2CCC[C@@H]21", "note": "[Ramiprilat]", "values": [{"measurement": "AngII-induced upregulation of MIP-1", "setting": "AngII treated monocytes", "result": "suppressed"}]}
{"compound": "angiotensin III (RVYIHPF; Angiotensin-3; UniProt P01019 26-32, looked up) [AngIII]", "values": [{"measurement": "MCP-1 mRNA and protein expression", "setting": "[2]; AngIII treatment of renal cells and monocytes", "result": "increase"}, {"measurement": "transcription factor NF-κB", "setting": "[2]; AngIII treatment", "result": "activated"}]}
{"compound": "angiotensin II (DRVYIHPF; Angiotensin-2; UniProt P01019 25-32, looked up) [AngII]", "values": [{"measurement": "mRNA and protein expression of the chemokine RANTES", "setting": "[3]", "result": "increase"}, {"measurement": "renal expression of TNFα and MCP-1", "setting": "renal tissue", "result": "increased"}, {"measurement": "CC and CXC chemokine levels", "setting": "leukocyte infiltration", "result": "increase"}]}
{"compound": "monocyte chemotactic protein-1 [MCP1]", "values": [{"measurement": "ligand-induced BRET ratio", "setting": "AT1R [4]", "result": "did not result in an increase in ligand-induced BRET ratio"}, {"measurement": "ligand-induced BRET ratio", "setting": "AT2R", "result": "did not result in an increase in ligand-induced BRET ratio"}]}
